Test results published in US20240109918A1, “HETEROCYCLIC COMPOUNDS AND USES THEREOF” (Kumquat Biosciences Inc., priority 2022, published 2024).

How the values were obtained:
KRASG12D = biological target: T1, KRASG12D (Homo sapiens, UniProt P01116, G12D); assay: Bio-Biochem-PPI-HTRF Ras-SOS1 interaction assay (KRAS G12D); type: biochemical; settings: 5 nM
T1 construct: made in house; host or cells: E. coli BL21 (DE3)
How it was run: (§1)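 HTRF measurement of GST-K-Ras (wt or G12D) binding to His-hSOS1, via anti-GST-Eu(K) donor and anti-6His-XL665 acceptor, in HEPES pH 7.4 buffer with NaCl, DTT, BSA and Igepal. Read after ≥10 min; compounds in duplicate from 10 μM down to 0.01 μM. IC50 from 665/620 nm ratio.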

KRASwt = biological target: T2, KRASwt (Homo sapiens, UniProt P01116); assay: Bio-Biochem-PPI-HTRF Ras-SOS1 interaction assay (KRAS wt); type: biochemical; settings: 5 nM
T2 construct: made in house; host or cells: E. coli BL21 (DE3)
T2 sequence (P01116 1-188 isoform P01116-2): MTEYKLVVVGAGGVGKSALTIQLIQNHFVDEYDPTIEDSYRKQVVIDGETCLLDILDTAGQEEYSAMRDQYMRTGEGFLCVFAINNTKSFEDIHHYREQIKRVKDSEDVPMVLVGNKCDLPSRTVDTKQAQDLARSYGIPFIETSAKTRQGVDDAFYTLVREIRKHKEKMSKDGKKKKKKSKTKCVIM
How it was run: as §1

T1 sequence (P01116 1-188 isoform P01116-2 G12D): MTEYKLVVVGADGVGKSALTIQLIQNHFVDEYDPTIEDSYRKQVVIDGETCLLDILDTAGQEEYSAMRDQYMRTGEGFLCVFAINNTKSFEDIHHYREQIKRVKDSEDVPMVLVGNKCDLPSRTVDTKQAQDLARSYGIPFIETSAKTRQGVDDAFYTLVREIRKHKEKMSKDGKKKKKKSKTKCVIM

Row | IC50 (KRASG12D) [µM] | IC50 (KRASwt) [µM] | Structure (SMILES)
1 | < 5 | < 5 | Cn1nc(C(F)F)cc1C(=O)N1CC2(CCCCN(c3nc(OC[C@@]45CCCN4C[C@H](F)C5)nc4c(F)c(-c5ccc(F)c6sc(N)c(C#N)c56)c(Cl)cc34)C2)C1 [compound 343, 2-amino-4-(6-chloro-4-(2-(3-(difluoromethyl)-1-methyl-1H-pyrazole-5-carbonyl)-2,6-diazaspiro[3.6]decan-6-yl)-8-fluoro-2-(((2R,7aS)-2-fluorotetrahydro-1H-pyrrolizin-7a(5H)-yl)methoxy)quinazolin-7-yl)-7-fluorobenzo[b]thiophene-3-carbonitrile]
2 | < 5 | < 5 | CC(C)[C@H](N)C(=O)N1CC2(CCCCN(c3nc(OC[C@@]45CCCN4C[C@H](F)C5)nc4c(F)c(-c5ccc(F)c6sc(N)c(C#N)c56)c(Cl)cc34)C2)C1 [compound 221, 4-(4-(2-(L-valyl)-2,6-diazaspiro[3.6]decan-6-yl)-6-chloro-8-fluoro-2-(((2R,7aS)-2-fluorotetrahydro-1H-pyrrolizin-7a(5H)-yl)methoxy)quinazolin-7-yl)-2-amino-7-fluorobenzo[b]thiophene-3-carbonitrile]
3 | < 5 | < 5 | N#Cc1c(N)sc2c(F)ccc(-c3c(Cl)cc4c(N5CCCCC6(CN(C(=O)NC7(C(F)(F)F)CC7)C6)C5)nc(OC[C@@]56CCCN5C[C@H](F)C6)nc4c3F)c12 [compound 289, 6-(7-(2-amino-3-cyano-7-fluorobenzo[b]thiophen-4-yl)-6-chloro-8-fluoro-2-(((2R,7aS)-2-fluorotetrahydro-1H-pyrrolizin-7a(5H)-yl)methoxy)quinazolin-4-yl)-N-(1-(trifluoromethyl)cyclopropyl)-2,6-diazaspiro[3.6]decane-2-carboxamide]
4 | < 5 | < 5 | N#Cc1c(N)sc2c(F)ccc(-c3c(Cl)cc4c(N5CCCCC6(CN(C(=O)CC78CC(F)(C7)C8)C6)C5)nc(OC[C@@]56CCCN5C[C@H](F)C6)nc4c3F)c12 [compound 282, 2-amino-4-(6-chloro-8-fluoro-4-(2-(2-(3-fluorobicyclo[1.1.1]pentan-1-yl)acetyl)-2,6-diazaspiro[3.6]decan-6-yl)-2-(((2R,7aS)-2-fluorotetrahydro-1H-pyrrolizin-7a(5H)-yl)methoxy)quinazolin-7-yl)-7-fluorobenzo[b]thiophene-3-carbonitrile]
5 | < 5 | < 5 | CN(C)C/C=C/C(=O)N1CC2(CCCN(c3nc(OC[C@@]45CCCN4C[C@H](F)C5)nc4c(F)c(-c5ccc(F)c6sc(N)nc56)c(Cl)cc34)C2)C1 [compound 181, (E)-1-(6-(7-(2-amino-7-fluorobenzo[d]thiazol-4-yl)-6-chloro-8-fluoro-2-(((2R,7aS)-2-fluorotetrahydro-1H-pyrrolizin-7a(5H)-yl)methoxy)quinazolin-4-yl)-2,6-diazaspiro[3.5]nonan-2-yl)-4-(dimethylamino)but-2-en-1-one]
6 | < 5 | < 5 | C[C@H](Oc1nc(N2CCCC3(CN(C(=O)N4CC(F)(F)C4)C3)C2)c2cc(Cl)c(-c3ccc(F)c4sc(N)c(C#N)c34)c(F)c2n1)[C@@H]1CCCN1C [compound 212, 2-amino-4-(6-chloro-4-(2-(3,3-difluoroazetidine-1-carbonyl)-2,6-diazaspiro[3.5]nonan-6-yl)-8-fluoro-2-((S)-1-((S)-1-methylpyrrolidin-2-yl)ethoxy)quinazolin-7-yl)-7-fluorobenzo[b]thiophene-3-carbonitrile]
7 | < 5 | < 5 | N#Cc1c(N)sc2c(F)ccc(-c3c(Cl)cc4c(N5CCCCC6(CN(C(=O)C7(CC(F)F)CC7)C6)C5)nc(OC[C@@]56CCCN5C[C@H](F)C6)nc4c3F)c12 [compound 227, 2-amino-4-(6-chloro-4-(2-(1-(2,2-difluoroethyl)cyclopropane-1-carbonyl)-2,6-diazaspiro[3.6]decan-6-yl)-8-fluoro-2-(((2R,7aS)-2-fluorotetrahydro-1H-pyrrolizin-7a(5H)-yl)methoxy)quinazolin-7-yl)-7-fluorobenzo[b]thiophene-3-carbonitrile]
8 | < 5 | < 5 | N#Cc1c(N)sc2c(F)ccc(-c3c(Cl)cc4c(N5CCCC6(CN(C(=O)C(F)F)C6)C5)nc(OC[C@@]56CCCN5C[C@H](F)C6)nc4c3F)c12 [compound 125, 2-amino-4-(6-chloro-4-(2-(2,2-difluoroacetyl)-2,6-diazaspiro[3.5]nonan-6-yl)-8-fluoro-2-(((2R,7aS)-2-fluorotetrahydro-1H-pyrrolizin-7a(5H)-yl)methoxy)quinazolin-7-yl)-7-fluorobenzo[b]thiophene-3-carbonitrile]
9 | < 5 | < 5 | N#CCC1(C(=O)N2CC3(CCCCN(c4nc(OC[C@@]56CCCN5C[C@H](F)C6)nc5c(F)c(-c6ccc(F)c7sc(N)c(C#N)c67)c(Cl)cc45)C3)C2)CCC1 [compound 216, 2-amino-4-(6-chloro-4-(2-(1-(cyanomethyl)cyclobutane-1-carbonyl)-2,6-diazaspiro[3.6]decan-6-yl)-8-fluoro-2-(((2R,7aS)-2-fluorotetrahydro-1H-pyrrolizin-7a(5H)-yl)methoxy)quinazolin-7-yl)-7-fluorobenzo[b]thiophene-3-carbonitrile]
10 | < 5 | < 5 | N#Cc1c(N)sc2c(F)ccc(-c3c(Cl)cc4c(N5CCCCC6(CN(C(=O)C7CCCN7)C6)C5)nc(OC[C@@]56CCCN5C[C@H](F)C6)nc4c3F)c12 (stereo partly drawn) [compound 314, 2-amino-4-(6-chloro-8-fluoro-2-(((2R,7aS)-2-fluorotetrahydro-1H-pyrrolizin-7a(5H)-yl)methoxy)-4-(2-prolyl-2,6-diazaspiro[3.6]decan-6-yl)quinazolin-7-yl)-7-fluorobenzo[b]thiophene-3-carbonitrile]
11 | < 5 | < 5 | CC(O)(C(=O)N1CC2(CCCCN(c3nc(OC[C@@]45CCCN4C[C@H](F)C5)nc4c(F)c(-c5ccc(F)c6sc(N)c(C#N)c56)c(Cl)cc34)C2)C1)C1CC1 (stereo partly drawn) [compound 329, 2-amino-4-(6-chloro-4-(2-(2-cyclopropyl-2-hydroxypropanoyl)-2,6-diazaspiro[3.6]decan-6-yl)-8-fluoro-2-(((2R,7aS)-2-fluorotetrahydro-1H-pyrrolizin-7a(5H)-yl)methoxy)quinazolin-7-yl)-7-fluorobenzo[b]thiophene-3-carbonitrile]
12 | < 5 | < 5 | N#Cc1c(N)sc2c(F)ccc(-c3c(Cl)cc4c(N5CCCCC6(CN(C(=O)CC7COC7)C6)C5)nc(OC[C@@]56CCCN5C[C@H](F)C6)nc4c3F)c12 [compound 273, 2-amino-4-(6-chloro-8-fluoro-2-(((2R,7aS)-2-fluorotetrahydro-1H-pyrrolizin-7a(5H)-yl)methoxy)-4-(2-(2-(oxetan-3-yl)acetyl)-2,6-diazaspiro[3.6]decan-6-yl)quinazolin-7-yl)-7-fluorobenzo[b]thiophene-3-carbonitrile]
13 | < 5 | < 5 | N#Cc1c(N)sc2c(F)ccc(-c3c(Cl)cc4c(N5CCOC6(CN(C(=O)C(F)Cl)C6)C5)nc(OC[C@@]56CCCN5C[C@H](F)C6)nc4c3F)c12 (stereo partly drawn) [compound 200, 2-amino-4-(6-chloro-4-(2-(2-chloro-2-fluoroacetyl)-5-oxa-2,8-diazaspiro[3.5]nonan-8-yl)-8-fluoro-2-(((2R,7aS)-2-fluorotetrahydro-1H-pyrrolizin-7a(5H)-yl)methoxy)quinazolin-7-yl)-7-fluorobenzo[b]thiophene-3-carbonitrile]
14 | < 5 | < 5 | Nc1nc2c(-c3c(Cl)cc4c(N5CCOC6(CCNCC6)C5)nc(OCC56CCCN5C[C@H](F)C6)nc4c3F)ccc(F)c2s1 (stereo partly drawn) [compound 129, 4-(6-chloro-8-fluoro-2-(((2R)-2-fluorotetrahydro-1H-pyrrolizin-7a(5H)-yl)methoxy)-4-(1-oxa-4,9-diazaspiro[5.5]undecan-4-yl)quinazolin-7-yl)-7-fluorobenzo[d]thiazol-2-amine]
15 | < 5 | < 5 | COCC(=O)N1CC2(CCCN(c3nc(O[C@@H](C)[C@@H]4CCCN4C)nc4c(F)c(-c5ccc(F)c6sc(N)c(C#N)c56)c(Cl)cc34)C2)C1 [compound 138, 2-amino-4-(6-chloro-8-fluoro-4-(2-(2-methoxyacetyl)-2,6-diazaspiro[3.5]nonan-6-yl)-2-((S)-1-((S)-1-methylpyrrolidin-2-yl)ethoxy)quinazolin-7-yl)-7-fluorobenzo[b]thiophene-3-carbonitrile]
16 | < 5 | < 5 | C#Cc1c(F)ccc2cc(O)cc(-c3ncc4c(N5CCOCC6(CN(C(=O)[C@H]7CC7(F)F)C6)C5)nc(OC[C@@]56CCCN5C[C@H](F)C6)nc4c3F)c12 [compound 316, ((R)-2,2-difluorocyclopropyl) (9-(7-(8-ethynyl-7-fluoro-3-hydroxynaphthalen-1-yl)-8-fluoro-2-(((2R,7aS)-2-fluorotetrahydro-1H-pyrrolizin-7a(5H)-yl)methoxy)pyrido[4,3-d]pyrimidin-4-yl)-6-oxa-2,9-diazaspiro[3.6]decan-2-yl)methanone]
17 | < 5 | < 5 | CC1(C(=O)N2CC3(CCCCN(c4nc(OC[C@@]56CCCN5C[C@H](F)C6)nc5c(F)c(-c6ccc(F)c7sc(N)c(C#N)c67)c(Cl)cc45)C3)C2)CC1 [compound 228, 2-amino-4-(6-chloro-8-fluoro-2-(((2R,7aS)-2-fluorotetrahydro-1H-pyrrolizin-7a(5H)-yl)methoxy)-4-(2-(1-methylcyclopropane-1-carbonyl)-2,6-diazaspiro[3.6]decan-6-yl)quinazolin-7-yl)-7-fluorobenzo[b]thiophene-3-carbonitrile]
